According to patent publication US4148785A, “Analgesic polypeptide” (American Home Products Corporation, priority 1978, dated 1979):
Where a SMILES comes first, the peptide text is derived from it. [ ]: non-standard residue; d: D form.

Key:
rats = settings: injection in the brain ventricle in rats; cited from earlier work
mouse vas deferens = settings: cited from earlier work
guinea pig ileum = settings: cited from earlier work
opiate receptor = settings: brain homogenates; cited from earlier work
rat = rat tail flick test (method of D-Amour and Smith), analgesic activity; type: in vivo
From the text: The representative polypeptide of this invention Tyr--D--Ala--Gly--Phe--D--Val--NH2, gave the following results in the reference standard rat tail flick test: […]

[1] = intracerebroventricular; cited from earlier work

In the case of “H--Tyr--Gly--Gly--Phe--Leu--OH [leucine-enkephalin]”, the analgesia (rats) is given as “profound analgesia that is fully reversible by naloxone”, the “block of electrically evoked contractions” value (from here on “block”) (mouse vas deferens) is given as “block electrically evoked contractions” and the “block” value (guinea pig ileum) is given as “block electrically evoked contractions”. For the same compound, the “inhibition of stereospecific receptor binding of 3H-naloxone” value (opiate receptor) was “inhibit the sterospecific receptor binding”.
For `CC(C)[C@@H](NC(=O)[C@H](Cc1ccccc1)NC(=O)CNC(=O)[C@@H](C)NC(=O)[C@@H](N)Cc1ccc(O)cc1)C(N)=O` [Tyr--D--Ala--Gly--Phe--D--Val--NH2, L-tyrosyl-D-alanylglycyl-L-phenylalanyl-D-valine amide] (H-Y[dA]GF[dV]-NH2), the “No. showing analgesia/No. tested” value (rat; intravenous 1.0 milligram/kilogram, 15 minutes after administration) was 2/6, the “No. showing analgesia/No. tested” value (rat; intravenous 1.0 milligram/kilogram, 30 minutes after administration) was 1/6 and the “No. showing analgesia/No. tested” value (rat; intravenous 1.0 milligram/kilogram, 60 minutes after administration) was 0/6. The “No. showing analgesia/No. tested” value (rat; intravenous 2.5 milligram/kilogram, 15 minutes after administration) was 5/6, the “No. showing analgesia/No. tested” value (rat; intravenous 2.5 milligram/kilogram, 30 minutes after administration) was 3/5 and the “No. showing analgesia/No. tested” value (rat; intravenous 2.5 milligram/kilogram, 60 minutes after administration) was 3/5. For the same compound, the “No. showing analgesia/No. tested” value (rat; intravenous 5.0 milligram/kilogram, 15 minutes after administration) was 6/6, the “No. showing analgesia/No. tested” value (rat; intravenous 5.0 milligram/kilogram, 30 minutes after administration) was 5/6 and the “No. showing analgesia/No. tested” value (rat; intravenous 5.0 milligram/kilogram, 60 minutes after administration) was 0/5. For the same compound, the “No. showing analgesia/No. tested” value (rat; intravenous .25 milligram/kilogram, 15 minutes after administration) was 1/6, the “No. showing analgesia/No. tested” value (rat; intravenous .25 milligram/kilogram, 30 minutes after administration) was 0/6 and the “No. showing analgesia/No. tested” value (rat; intravenous .25 milligram/kilogram, 60 minutes after administration) was 1/6. The “No. showing analgesia/No. tested” value (rat; intravenous .5 milligram/kilogram, 15 minutes after administration) was 4/6, the “No. showing analgesia/No. tested” value (rat; intravenous .5 milligram/kilogram, 30 minutes after administration) was 4/6 and the “No. showing analgesia/No. tested” value (rat; intravenous .5 milligram/kilogram, 60 minutes after administration) was 1/6. For the same compound, the “No. showing analgesia/No. tested” value (rat; subcutaneous 5.0 milligram/kilogram, 30 minutes after administration) was 2/6, the “No. showing analgesia/No. tested” value (rat; subcutaneous 5.0 milligram/kilogram, 60 minutes after administration) was 1/6 and the “No. showing analgesia/No. tested” value (rat; subcutaneous 5.0 milligram/kilogram, 90 minutes after administration) was 0/6. The “No. showing analgesia/No. tested” value (rat; subcutaneous 5.0 milligram/kilogram, 120 minutes after administration) was 0/6, the “No. showing analgesia/No. tested” value (rat; subcutaneous 20.0 milligram/kilogram, 30 minutes after administration) was 6/6 and the “No. showing analgesia/No. tested” value (rat; subcutaneous 20.0 milligram/kilogram, 60 minutes after administration) was 3/6. The “No. showing analgesia/No. tested” value (rat; subcutaneous 20.0 milligram/kilogram, 90 minutes after administration) was 3/6 and the “No. showing analgesia/No. tested” value (rat; subcutaneous 20.0 milligram/kilogram, 120 minutes after administration) was 2/6.
In the case of Tyr--D--Ala--Gly--Phe--D--Leu, the “activity when administered intracerebroventricularly” value [1] is listed as “activity”.
In the case of “H--Tyr--Gly--Gly--Phe--Met--OH [methionine-enkephalin]”, the analgesia (rats) is given as “profound analgesia that is fully reversible by naloxone”, the “block” value (mouse vas deferens) is given as “block electrically evoked contractions” and the “block” value (guinea pig ileum) is given as “block electrically evoked contractions”. The “inhibition of stereospecific receptor binding of 3H-naloxone” value (opiate receptor) was “inhibit the sterospecific receptor binding”.
